Measured values taken from ChEMBL document CHEMBL1201862, “PubChem BioAssay data set” (2004).
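Five concentrations, 48 hours, 96-well plates. GI50 = concentration required for 50% inhibition of growth.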 The source made the active and inactive calls. No stated cut-off is given here; in the data, active = GI50 up to about 1.1 µM and inactive = higher.

Key:
Assay in all cases: NCI anticancer screen, dose series, 48 h
[1] = system: RPMI-8226
[2] = system: SW-620
[3] = system: SF-295
[4] = system: OVCAR-3
[5] = system: SN12C
[6] = system: CAKI-1
[7] = system: NCI-H522
[8] = system: CCRF-CEM
[9] = system: TK-10
[10] = system: 786-0
[11] = system: T47D
[12] = system: SK-MEL-5
[13] = system: NCI-H23
[14] = system: OVCAR-5
[15] = system: PC-3
[16] = system: COLO 205
[17] = system: HCT-116
[18] = system: SK-MEL-28
[19] = system: HCC 2998
[20] = system: OVCAR-4
[21] = system: HCT-15
[22] = system: UACC-257
[23] = system: OVCAR-8
[24] = system: SK-MEL-2
[25] = system: UO-31
[26] = system: MDA-N
[27] = system: HOP-92
[28] = system: SNB-19
[29] = system: SF-268
[30] = system: NCI-H460
[31] = system: Hs-578T
[32] = system: U-251
[33] = system: MCF7
[34] = system: BT-549
[35] = system: KM12
[36] = system: ACHN
[37] = system: K562
[38] = system: MDA-MB-231
[39] = system: Malme-3M
[40] = system: HL-60
[41] = system: HT-29
[42] = system: UACC-62
[43] = system: MDA-MB-435
[44] = system: SNB-75
[45] = system: NCI/ADR-RES
[46] = system: LOX IMVI
[47] = system: IGROV-1
[48] = system: A549
[49] = system: MOLT-4
[50] = system: SR
[51] = system: NCI-H226
[52] = system: HOP-62
[53] = system: EKVX
[54] = system: DU-145
[55] = system: SF-539
[56] = system: SK-OV-3
[57] = system: M14
[58] = system: A498
[59] = system: RXF 393

In the case of Brc1cc2nn(-c3ccccc3)nc2c2nonc12, the GI50 [1] is reported as > 100 µM (inactive), the GI50 [2] is reported as > 100 µM (inactive) and the GI50 [3] is reported as > 100 µM (inactive). For the same molecule, the GI50 [4] was > 100 µM (inactive), the GI50 [5] was > 100 µM (inactive) and the GI50 [6] was > 100 µM (inactive). The GI50 [7] was > 100 µM (inactive), the GI50 [8] was > 100 µM (inactive) and the GI50 [9] was > 100 µM (inactive). For the same molecule, the GI50 [10] was > 100 µM (inactive), the GI50 [11] was 28.4 µM (inactive) and the GI50 [12] was > 100 µM (inactive). The GI50 [13] was > 100 µM (inactive), the GI50 [14] was > 100 µM (inactive) and the GI50 [15] was > 100 µM (inactive). For the same molecule, the GI50 [16] was > 100 µM (inactive), the GI50 [17] was > 100 µM (inactive) and the GI50 [18] was > 100 µM (inactive). The GI50 [19] was > 100 µM (inactive), the GI50 [20] was > 100 µM (inactive) and the GI50 [21] was greater than 100 µM. For the same molecule, the GI50 [22] was > 100 µM (inactive), the GI50 [23] was > 100 µM (inactive) and the GI50 [24] was > 100 µM (inactive). For the same molecule, the GI50 [25] was > 100 µM (inactive), the GI50 [26] was > 100 µM (inactive) and the GI50 [27] was > 100 µM (inactive). The GI50 [28] was > 100 µM (inactive), the GI50 [29] was > 100 µM (inactive) and the GI50 [30] was > 100 µM (inactive). For the same molecule, the GI50 [31] was > 100 µM (inactive), the GI50 [32] was > 100 µM (inactive) and the GI50 [33] was > 100 µM (inactive). The GI50 [34] was > 100 µM (inactive), the GI50 [35] was > 100 µM (inactive) and the GI50 [36] was > 100 µM (inactive). For the same molecule, the GI50 [37] was > 100 µM (inactive), the GI50 [38] was > 100 µM (inactive) and the GI50 [39] was > 100 µM (inactive). The GI50 [40] was > 100 µM (inactive), the GI50 [41] was > 100 µM (inactive) and the GI50 [42] was > 100 µM (inactive). For the same molecule, the GI50 [43] was > 100 µM (inactive), the GI50 [44] was > 100 µM (inactive) and the GI50 [45] was > 100 µM (inactive). For the same molecule, the GI50 [46] was > 100 µM (inactive), the GI50 [47] was > 100 µM (inactive) and the GI50 [48] was > 100 µM (inactive). For the same molecule, the GI50 [49] was > 100 µM (inactive), the GI50 [50] was > 100 µM (inactive) and the GI50 [51] was > 100 µM (inactive). The GI50 [52] was > 100 µM (inactive), the GI50 [53] was > 100 µM (inactive) and the GI50 [54] was > 100 µM (inactive). For the same molecule, the GI50 [55] was > 100 µM (inactive), the GI50 [56] was > 100 µM (inactive) and the GI50 [57] was > 100 µM (inactive).
Cn1c(=O)cc(NCCc2ccccc2)[nH]c1=O was tested, and the GI50 [58] was 46 µM (inactive), the GI50 [1] was 6.12 µM (inactive) and the GI50 [2] was 27.5 µM (inactive). The GI50 [3] was 20.9 µM (inactive), the GI50 [4] was 16.1 µM (inactive) and the GI50 [5] was 23.3 µM (inactive). For the same molecule, the GI50 [6] was 22.8 µM (inactive), the GI50 [8] was 31.7 µM (inactive) and the GI50 [9] was > 100 µM (inactive). For the same molecule, the GI50 [10] was 41 µM (inactive), the GI50 [11] was 54.5 µM (inactive) and the GI50 [12] was 18.8 µM (inactive). For the same molecule, the GI50 [13] was 91.8 µM (inactive), the GI50 [14] was > 100 µM (inactive) and the GI50 [15] was 13 µM (inactive). For the same molecule, the GI50 [16] was 31.6 µM (inactive), the GI50 [17] was 34.2 µM (inactive) and the GI50 [18] was 67.8 µM (inactive). The GI50 [19] was 27.8 µM (inactive), the GI50 [20] was > 100 µM (inactive) and the GI50 [21] was 29.3 µM. For the same molecule, the GI50 [22] was 50 µM (inactive), the GI50 [23] was 43.4 µM (inactive) and the GI50 [24] was 51.1 µM (inactive). For the same molecule, the GI50 [25] was 34.1 µM (inactive), the GI50 [26] was 3.7 µM (inactive) and the GI50 [27] was > 100 µM (inactive). The GI50 [28] was 77.8 µM (inactive), the GI50 [29] was > 100 µM (inactive) and the GI50 [30] was 34.2 µM (inactive). For the same molecule, the GI50 [31] was 14.1 µM (inactive), the GI50 [32] was 61.1 µM (inactive) and the GI50 [59] was 57.8 µM (inactive). For the same molecule, the GI50 [33] was 19.7 µM (inactive), the GI50 [34] was 47.8 µM (inactive) and the GI50 [35] was 15.3 µM (inactive). For the same molecule, the GI50 [36] was 39.3 µM (inactive), the GI50 [37] was 19.1 µM (inactive) and the GI50 [38] was 12.3 µM (inactive). For the same molecule, the GI50 [39] was 34.8 µM (inactive), the GI50 [40] was > 10 µM (inactive) and the GI50 [41] was 25.5 µM (inactive). The GI50 [42] was 19.9 µM (inactive), the GI50 [43] was 5.46 µM (inactive) and the GI50 [44] was 19.9 µM (inactive). The GI50 [45] was 24.7 µM (inactive), the GI50 [46] was 46.6 µM (inactive) and the GI50 [47] was 38.8 µM (inactive). For the same molecule, the GI50 [48] was 38.8 µM (inactive), the GI50 [49] was 35.2 µM (inactive) and the GI50 [50] was 9.1 µM (inactive). For the same molecule, the GI50 [51] was > 100 µM (inactive), the GI50 [52] was 30 µM (inactive) and the GI50 [53] was 54.7 µM (inactive). For the same molecule, the GI50 [54] was 52 µM (inactive), the GI50 [55] was 39.4 µM (inactive) and the GI50 [56] was 53.6 µM (inactive). The GI50 [57] was 27.8 µM (inactive).
